Columns and labels:
Format in all cases: cell-based
H929 cells = assay: Gene expression changes by Affymetrix microarray in H929 cells; conditions: POM 1 μM, 24 hour
Method: (§1) FIG. 1A-1F. Down regulation of UHRF1 transcription by IMiDs correlates with drug sensitivity of multiple myeloma. (1A) Volcano plot of protein expression changes determined by mass spectrometry in H929 cells at 24 hr of treatment with CC-220 (0.1 μM) or DMSO control. X axis, Log2fold change (FC); Y axis, significance,-log 10 [p-value]. […] (1B) Volcano plot of gene expression changes determined by Affymetrix microarray in H929 cells treated with POM (1 μM) or DMSO for 24 hr. X axis, Log2fold change (FC); Y axis, significance,-log 10 [p-value], n=2 technical replicates). […] (1C) Western blot analysis protein expression of UHRF1, Ikaros, Aiolos and ZFP91 in H929 cells treated with 1 μM POM for indicated time. (1D) qRT-PCR analysis of UHRF1 gene expression levels in cells as in (1C). Error bars represent the SEM from duplicate measurements. (1E) Western blot analysis protein expression of UHRF1 and indicated proteins in MM cells treated with DMSO (−) or 1 μM POM (+) for 3 days. GAPDH serves as a loading control. (1F) Thymidine incorporation of various MM cell lines treated with indicated dose of POM for 3 days. Error bars represent the SEM from technical replicates.
Given that UHRF1 has been reported to be oncogenic in other cancer types, including MM (Gu et al., 2020, BMC Biol, 18:33), the functions of UHRF1 in MM and the mechanisms underlying its gene regulation in response to immunomodulator drugs that binds to cereblon was explored.

IRF4 and c-Myc = assay: Western blot of IRF4 and c-Myc in MM cells; conditions: MM1.S, DF15 and U266 cells; 1 μM POM, 3 days
Method: as §1, with “(1F) Thymidine incorporation of various MM cell lines treated with indicated dose of POM for 3 days. Error bars represent the SEM from technical replicates.” left out
Cells were lysed with cell lysis buffer (50 mM TrisHCl pH7.4, 250 mM NaCl, 0.5% Triton X100, 10% glycerol) supplemented with protease inhibitor cocktail. […] The protein concentration was measured by a Bradford Protein Assay (Bio-Rad). […] Proteins of interested were detected incubation with primary antibodies listed below at 4° C. overnight. […]

UHRF1 = assay: Immunocytochemistry assay of UHRF1 in H929 cells; conditions: 48 hours after 1 μM POM
Method: FIG. 6A-6D. […] (6A) Immunocytochemistry assay of UHRF1 in H929 cells treated with DMSO or 1 μM POM for 48 hrs. (6B) qRT-PCR analysis of UHRF1 gene expression levels in indicated MM cells treated with indicated doses of POM for 3 days. Data was normalized to ACTB. Error bars represent the SEM from duplicate measurements. * P<0.05, ** P<0.01, *** P<0.001, **** P<0.0001 (Two-tailed Student's t-test). (6C) Western blot analysis protein expression of UHRF1, Ikaros, Aiolos, ZFP91 and Celebron in H929 cells treated with 1 μM POM or 0.1 μM CC-220 for 3 days. DMSO, vehicle control. (6D) Western blot analysis protein expression of UHRF1, Ikaros, Aiolos, ZFP91 and Celebron in H929 or RPMI 8226 cells treated with 1 μM POM, 0.1 μM CC-220 or 0.01 μM CC-480 for 3 days. DMSO, vehicle control.

Nc1cccc2c1C(=O)N(C1CCC(=O)NC1=O)C2=O (centres unmarked) [POM, pomalidomide]
UHRF1 gene expression (microarray) (H929 cells): one of the most significantly downregulated genes | expression of interferon response genes IFIT1 and IFIT3 (H929 cells): drastic induction | gene expression of cell cycle regulators E2F1, MYB and CDC45 (H929 cells): most significantly downregulated genes | IRF4 and c-Myc expression (IRF4 and c-Myc): downregulated | UHRF1 protein by immunocytochemistry (UHRF1): nearly undetectable

Source: patent US20260234630A1, “Methods for Treating Multiple Myeloma” (Celgene Corporation, priority 2022, published 2026)
